From ChEMBL document CHEMBL5223146, “Synthesis of esters and amides of 2-aryl-1-hydroxy-4-methyl-1H-imidazole-5-carboxylic acids and study of their antiviral activity against orthopoxviruses” (Bioorg Med Chem Lett, 2023) come the findings set out here.

In one data set the test system is Vaccinia virus. Put plainly: Antiviral activity against Vaccinia virus Copenhagen infected in Vero cells measured after 4 days by colorimetric assay. It is filed as functional, organism-based, Orthopoxvirus vaccinia.
Another data set deals with MDCK. Put plainly: (§1) Cytotoxicity against MDCK cells measured after 4 days by colorimetric assay. The class given is toxicity, cell-based, Canis lupus familiaris. As to conditions: dog, mdck, 96 h; time 4 day; call rule not given here.
A short description of data set [1]: (§2) Cytotoxicity against African green monkey Vero cells measured after 4 days by colorimetric assay. As to conditions: chlorocebus sabaeus, Vero cells; time 4 day. The class given is toxicity, cell-based.
Data set [2] is described as follows: Selectivity index, ratio of CC50 for African green monkey Vero cells to IC50 for Vaccinia virus Copenhagen infected in Vero cells. It is filed as toxicity, cell-based. As to conditions: read-out: Ratio CC50/IC50.
The next data set relates to Influenza A virus. Put plainly: Antiviral activity against Influenza A virus (A/California/07/2009(H1N1)) infected in MDCK cells measured after 4 days by colorimetric assay. The class given is functional, organism-based.
The nature of data set [3]: as §1. The class given is toxicity, cell-based, Canis lupus familiaris. As to conditions: dog, MDCK cells; time 4 day.
Another data set relates to Ectromelia virus. Put plainly: Antiviral activity against ectromelia virus K-1 infected in Vero cells measured after 4 days by colorimetric assay. It is filed as functional, organism-based. The conditions noted are these: K-1, Vero, 96 h.
The nature of data set [4]: Selectivity index, ratio of CC50 for African green monkey Vero cells to IC50 for Cowpox virus Grishak infected in Vero cells. As to conditions: read-out: Ratio CC50/IC50. The class given is toxicity, cell-based.
A further data set relates to Cowpox virus. Put plainly: Antiviral activity against Cowpox virus Grishak infected in Vero cells measured after 4 days by colorimetric assay. It is filed as functional, organism-based. The conditions noted are these: 96 h.
The nature of data set [5]: Selectivity index, ratio of CC50 for African green monkey Vero cells to IC50 for ectromelia virus K-1 infected in Vero cells. The conditions noted are these: read-out: Ratio CC50/IC50. The class given is toxicity, cell-based.
For another data set, the system named is Vero. The description is as §2. It is filed as toxicity, cell-based. The conditions noted are these: chlorocebus sabaeus, vero, 96 h; time 4 day.
A short description of data set [6]: Selectivity index, ratio of CC50 for MDCK cells to IC50 for Influenza A virus (A/California/07/2009(H1N1)) infected in MDCK cells. It is filed as toxicity, cell-based. As to conditions: dog, read-out: Ratio CC50/IC50.
Setting [7] is: Orthopoxvirus vaccinia, Copenhagen, Vero, 96 h, read-out: IC50.
The mark [8] stands for this setting: Influenza A virus, A/California/07/2009(H1N1), MDCK, 96 h, read-out: IC50.

The IC50 is the concentration at which inhibition is half-maximal. One may read the CC50 as the concentration that lowers cell viability or growth by half.

Consider `CCCCNC(=O)c1c(O)nc(-c2ccc(C(F)(F)F)cc2)n1O`, for which the IC50 with Vaccinia virus (setting [7]) was 3.4 µM; in the data set with Influenza A virus (mdck), “Not Active”. The CC50 in the data set on MDCK came out at 12.9 µM. The molecule also returned a CC50 at 96 h in [1] of 26 µM. Besides, in data set [2], the selectivity ratio stood at 8.
Consider `CCCCNC(=O)c1c(O)nc(-c2ccccc2)n1O`, for which the IC50 with Vaccinia virus (setting [7]) was 73.4 µM; in the data set with Influenza A virus (mdck), “Not Active”. For the same molecule, the CC50 at 96 h is greater than 366 µM in [3] and 436 µM in data set [1]. For the same molecule, the selectivity ratio in [2] is 6.
Consider `CCCCNC(=O)c1c(O)nc(-c2ccccc2O)n1O`, for which the figures for the IC50 with Vaccinia virus (setting [7]) and in the data set with Influenza A virus (mdck) were 15 µM and “Not Active”, respectively. Also, the CC50 at 96 h in [3] amounted to 42.9 µM; in data set [1], 197 µM. The selectivity ratio in [2] came out at 13.
Turning to `O=C(NC1CC1)c1c(O)nc(-c2ccccc2[N+](=O)[O-])n1O`, the IC50 entry in the data set with Vaccinia virus (vero) and in the data set with Influenza A virus (mdck) was “Not Active” in each case. For the same molecule, the CC50 at 96 h in [3] and in data set [1] was greater than 331 µM in each case.
Consider `O=C(NC1CC1)c1c(O)nc(-c2ccc([N+](=O)[O-])cc2)n1O`, for which the IC50 with Vaccinia virus (setting [7]) was 10.7 µM; in the data set with Ectromelia virus it was 14.7 µM; with Influenza A virus (mdck), “Not Active”; with Cowpox virus it was 22.1 µM. The CC50 at 96 h was greater than 331 µM in data set [3] and 357 µM in data set [1]. The figures for the selectivity ratio in [4], in data set [2] and in data set [5] were 16, 33 and 24, respectively.
As to `Nc1ccn(C[C@@H](CO)OCP(=O)(O)O)c(=O)n1` [CIDOFOVIR], the IC50 is 32.5 µM with Vaccinia virus (setting [7]), 34 µM with Ectromelia virus and 46.4 µM in the data set on Cowpox virus. The same molecule came in with a CC50 with Vero of 989 µM. Besides, the selectivity ratio was found to be 21 in data set [4], 30 in data set [2] and 29 in data set [5].
For the molecule `CCOC(=O)c1c(O)nc(-c2ccc([N+](=O)[O-])cc2)n1O`, the IC50 in the data set on Vaccinia virus (setting [7]) was 0.45 µM; with Ectromelia virus it was 1.07 µM; in the data set with Influenza A virus (setting [8]) it was 188 µM; in the data set on Cowpox virus, 3.23 µM. For the same molecule, the CC50 at 96 h in data set [3] is greater than 344 µM; in data set [1], 45.7 µM. Moreover, the selectivity ratio in [4] stood at 14; in data set [2], 102; in data set [5], 43; in data set [6], 1.8.
As to `CCCCNC(=O)c1c(O)nc(-c2cccc([N+](=O)[O-])c2)n1O`, the IC50 in the data set with Vaccinia virus (setting [7]) is 17.6 µM; in the data set with Influenza A virus (mdck), “Not Active”. Also, the results for the CC50 at 96 h in data set [3] and in data set [1] were greater than 314 µM and 164 µM, respectively. For the same molecule, in [2], the selectivity ratio is 9.
Take `CCOC(=O)c1c(O)nc(-c2ccccc2O)n1O`: the IC50 is 15.5 µM in the data set on Vaccinia virus (setting [7]), 23.6 µM in the data set with Ectromelia virus, “Not Active” with Influenza A virus (mdck) and 31.4 µM in the data set on Cowpox virus. For the same molecule, the CC50 at 96 h in data set [3] is greater than 382 µM; in data set [1] it was 1830 µM. Further, the selectivity ratio turned out to be 58 in data set [4], 117 in [2] and 77 in [5].
Consider `O=C(NNC(=O)C1C2C=CC(C3CC23)C1C(=O)O)c1ccc(C(F)(F)F)cc1` (centres undefined), for which the IC50 in the data set with Vaccinia virus (setting [7]) stood at 0.0076 µM; in the data set on Ectromelia virus, 0.0076 µM; with Cowpox virus, 0.0203 µM. In the data set with Vero, this molecule yielded a CC50 of 1190 µM. Besides, the selectivity ratio in [4] was determined as 58.8; in [2] it was 157; in data set [5], 157.
As for `O=C(NC1CC1)c1c(O)nc(-c2ccccc2)n1O`, the IC50 entry in the data set on Vaccinia virus (vero) and in the data set on Influenza A virus (mdck) was “Not Active” in each case. The CC50 at 96 h in data set [3] and in data set [1] was greater than 389 µM each time.
Consider `CCCCNC(=O)c1c(O)nc(-c2ccc([N+](=O)[O-])cc2)n1O`, for which the concentration for half-maximal inhibition (IC50) is 3.02 µM with Vaccinia virus (setting [7]), 8.9 µM in the data set on Ectromelia virus, “Not Active” with Influenza A virus (mdck) and 12.3 µM in the data set on Cowpox virus. Also, the CC50 at 96 h in [3] came out at 27.2 µM; in [1], 201 µM. Also, the results for the selectivity ratio in data set [4], in [2] and in data set [5] were 16, 66 and 23, respectively.
In the case of `CCOC(=O)c1c(O)nc(-c2ccccc2)n1O`, the 50% inhibitory concentration (IC50) result was “Not Active” in the data set with Vaccinia virus (vero) and 213 µM in the data set on Influenza A virus (setting [8]). The results for the CC50 at 96 h in [3] and in [1] were greater than 406 µM and 172 µM, respectively. The selectivity ratio in data set [6] was found to be 1.9.
For the molecule `O=C(NC1CC1)c1c(O)nc(-c2cccc([N+](=O)[O-])c2)n1O`, the IC50 result in the data set on Vaccinia virus (vero) and with Influenza A virus (mdck) was “Not Active” throughout. For the same molecule, the values for the CC50 at 96 h in data set [3] and in data set [1] were greater than 331 µM and 261 µM, respectively.
Consider `CCCCNC(=O)c1c(O)nc(-c2ccccc2[N+](=O)[O-])n1O`, for which the IC50 result in the data set on Vaccinia virus (vero) and in the data set with Influenza A virus (mdck) was “Not Active” each time. In addition, the CC50 at 96 h in data set [3] and in data set [1] was greater than 314 µM each time.
Regarding `CCOC(=O)c1c(O)nc(-c2cccc([N+](=O)[O-])c2)n1O`, the IC50 result in the data set on Vaccinia virus (vero) is “Not Active”; in the data set with Influenza A virus (setting [8]) it was 118 µM. The CC50 at 96 h in [3] was greater than 344 µM; in data set [1] it was 375 µM. Also, the selectivity ratio in [6] turned out to be 2.9.
Consider `CCOC(=O)c1c(O)nc(-c2ccccc2[N+](=O)[O-])n1O`, for which the IC50 entry in the data set with Vaccinia virus (vero) and with Influenza A virus (mdck) was “Not Active” throughout. Also, the CC50 at 96 h in data set [3] was greater than 344 µM; in [1], 343 µM.
In the case of `CCOC(=O)c1c(O)nc(-c2ccc(C(F)(F)F)cc2)n1O`, the IC50 in the data set on Vaccinia virus (setting [7]) was 0.35 µM; in the data set on Ectromelia virus, 6.75 µM; in the data set on Influenza A virus (mdck), “Not Active”; in the data set with Cowpox virus, 10 µM. Moreover, the figures for the CC50 at 96 h in data set [3] and in data set [1] were greater than 318 µM and 322 µM, respectively. The selectivity ratio in data set [4] came out at 32; in data set [2] it was 919; in [5], 46.
In the case of `O=C(NC1CC1)c1c(O)nc(-c2ccc(C(F)(F)F)cc2)n1O`, the IC50 in the data set on Vaccinia virus (setting [7]) is 20.6 µM; in the data set with Influenza A virus (mdck), “Not Active”. Moreover, the results for the CC50 at 96 h in data set [3] and in data set [1] were greater than 308 µM and 202 µM, respectively. Also, the selectivity ratio in [2] worked out at 10.
With `O=C(NC1CC1)c1c(O)nc(-c2ccccc2O)n1O`, the IC50 entry with Vaccinia virus (vero) and in the data set with Influenza A virus (mdck) was “Not Active” throughout. The results for the 50% cytotoxic concentration (CC50) in the data set with MDCK and with Vero were greater than 366 µM and 299 µM, respectively.
